Laboratory results: patent publication US9254308B2, “Kits and methods for the treatment of cancer using gliadin peptides” (BARMARSA RESEARCH LLC, priority 2013, dated 2016)
Where no end group is shown, it is not given here.

Legend:
A549 cells [1] = assay: TUNEL apoptosis assay, A549 cells; assay type: cell-based, human; details: A549, 72 h, 1 μM gefitinib alone
Experimental: The ability of alpha-gliadin p31-43 to induce apoptosis in cancer cells was assessed. […] Cells were grown in the presence of 5% CO2 at 37° C. in an incubator.
Briefly, A549 cells (1×10^5) were plated in chamber slides and allowed to adhere overnight. […] After the 72-hour treatment, the cells were fixed with 4% formaldehyde in PBS (pH 7.4) for 25 minutes at room temperature, then washed twice for 5 minutes in PBS, permeabilized in 0.2% Triton X-100 solution in PBS for 5 minutes at room temperature, and finally washed twice for 5 minutes in PBS. Apoptosis was measured using the DeadEnd™ Colorimetric TUNEL System (Promega, Madison, Wis.) according to the manufacturer's instructions. At the end of the assay, the cells were mounted and observed under the microscope.

[2] = system: A549 human lung cancer xenograft; assay: A549 human lung cancer xenograft model, tumor volume; assay type: in vivo, nude mice; details: alone or with 200 μg gliadin i.v.; for Mean Tumor Volume: 150 mg/kg gefitinib by gavage once daily 14 days
Source text: Six-week old female nude mice (Harlan Laboratories, Indianapolis, Ind.) were quarantined for 3 days and housed 5 mice per cage, with a 12-hour light-dark cycle, and a relative humidity of 50%. Drinking water and diet were supplied to the animals ad libitum. All animals were housed under pathogen-free conditions. […] The animals were monitored for two weeks following the 14-day treatment period. Tumor measurements were initiated as soon as the tumor formed a palpable mass and measured twice weekly.

NSCLC = details: Caucasian NSCLC patients; Gottschling 2012; cited from earlier work
A549 NSCLC cells = assay: MTT growth inhibition, A549 cells, 72-hour treatment
Experimental: (§1) Cells were kept at 37° C. in a humidified atmosphere of 5% CO2 and grown until they reached a confluency of 90%. Cells were then washed, trypsinized, and counted using a Coulter counter.
A549 NSCLC cells were maintained and cultured as described above. […] Cells were plated at a density of 10,000 cells/well in 24-well cell culture plates and allowed to adhere for 24 hours. […] All experiments were conducted in sextuplicate. […] Following 72 hours of treatment, growth inhibition was evaluated by the 3-(4,5-dimethylthiazol-2-yl)-2,5-diphenyltetrazolium bromide (MTT) assay (Roche Diagnostics Corporation, Indianapolis, Ind.) according to the manufacturer's instructions. The absorbance at 570 nm was measured using a plate reader (BioTek, Winooski, Vt.).

[3] = system: PANC-1 pancreatic carcinoma cells; assay: MTT growth inhibition, PANC-1 cells, 72-hour treatment; details: for Mean absorbance (570 nm): PANC-1, 72 h, 1 μg/mL gefitinib or erlotinib alone
Experimental: as §1
(§2) Cells were plated at a density of 10,000 cells/well in 24-well cell culture plates and allowed to adhere for 24 hours. […] All experiments were conducted in sextuplicate. […] Following 72 hours of treatment, growth inhibition was evaluated by the MTT assay according to the manufacturer's instructions. The absorbance at 570 nm was measured using a plate reader.

[4] = system: PANC-1 human pancreatic carcinoma cells; assay: Cell count, PANC-1 cells, 5-FU 72-hour treatment; assay type: cell-based; details: PANC-1, 72 h
PANC-1 cells = assay: Cell count, PANC-1 cells, 14-day treatment regimen; assay type: cell-based, human
Experimental: All treatments were conducted in triplicate. […] Media was refreshed with the respective treatments every 72 hours. After 14 days of treatment, cells were trypsinized and counted.

A549 cells [5] = assay: Cell count, A549 cells, cisplatin 72-hour treatment; assay type: cell-based, human; details: A549, 72 h
Experimental: All experiments were conducted in triplicate.

A549 cells [6] = assay: Cell count, A549 cells, 14-day treatment regimen; assay type: cell-based, human; details: A549, 14 days; 3.3 μM cisplatin
Experimental: All treatments were conducted in triplicate. […] Media was refreshed with the respective treatments every 72 hours.

[7] = system: NCI-H1975 NSCLC cells (EGFR L858R, T790M); assay: MTT growth inhibition, NCI-H1975 cells, 72-hour treatment
Experimental: as §1, §2

[8] = system: 5-FU-resistant PANC-1 cells; assay: Cell count, surviving 5-FU-resistant PANC-1 cells, 7-day gliadin treatment; assay type: cell-based, human; details: 100 μg/mL or 200 μg/mL for 7 additional days
Experimental: In order to examine the effects of alpha-gliadin peptide p31-43 on PANC-1 cells exposed to 5-FU for an extended period of time (14 days), an experiment was conducted on the surviving, i.e., resistant, cell population (4%) from the previous experiment. Briefly, after counting viable cells on day 14 of treatment, surviving cells were replated at a density of 5,000 cells per well. The following day, cells were treated with vehicle or 100 μg/mL or 200 μg/mL of alpha-gliadin peptide p31-43. Media containing the respective treatments was refreshed on day 3 and 6. On day 7, cells were trypsinized and counted.

[9] = Toxicity in BALB/c mice (body weight, behavior, deaths); assay type: in vivo; details: female BALB/c mice
Experimental: The toxicity of alpha-gliadin peptide p31-43 in animals was evaluated. Five- to six-week old female BALB/c mice were dosed with vehicle (100 μL DMSO/saline) administered subcutaneously once a day for five days (Group 1) or 200 μg of alpha-gliadin peptide p31-43 in vehicle administered subcutaneously once a day for five days (Group 2). To prepare the gliadin solution, 70 μL of sterile DMSO was added to 1 mg of alpha-gliadin peptide p31-43 and vortexed to dissolve the peptide. After the peptide was dissolved, 430 μL of sterile 0.9% sodium chloride was added and vortexed to create a 1000 μg/500 μL solution of alpha-gliadin peptide p31-43.
Toxicity was evaluated using daily weight measurements and behavior assessments. […] At the end of the study, the mean body weights (±SE) were 19.8±0.4 grams for Group 1 (n=5) and 20.0±0.3 grams for Group 2 (n=5). […] Alpha-gliadin peptide p31-43 was therefore tolerated at a dosing level of 10 mg/kg/day without apparent toxicity.

[10] = 200 μg subcutaneously once a day for five days

In the case of `COc1cc2ncnc(Nc3ccc(F)c(Cl)c3)c2cc1OCCCN1CCOCC1` [gefitinib], the Mean % apoptotic (A549 cells [1]) is reported as 19%, the tumor doubling time ([2]; A549 xenograft, 150 mg/kg gefitinib) is reported as 24.48 days and the “Mean Tumor Volume” value ([2]; Study Day 4 (dosing period)) is reported as 47.74 ± 2.87 mm^3. The “Mean Tumor Volume” value ([2]; Study Day 7 (dosing period)) was 51.67 ± 5.69 mm^3, the “Mean Tumor Volume” value ([2]; Study Day 11 (dosing period)) was 49.30 ± 3.77 mm^3 and the “Mean Tumor Volume” value ([2]; Study Day 14 (dosing period)) was 60.43 ± 5.35 mm^3. The “Mean Tumor Volume” value ([2]; Study Day 18 (recovery period)) was 75.40 ± 9.05 mm^3, the “Mean Tumor Volume” value ([2]; Study Day 21 (recovery period)) was 95.22 ± 11.15 mm^3 and the “Mean Tumor Volume” value ([2]; Study Day 25 (recovery period)) was 157.69 ± 14.76 mm^3. For the same molecule, the “Mean Tumor Volume” value ([2]; Study Day 28 (recovery period, termination), 150 mg/kg) was 239.25±32.78 mm^3, the “patients exhibiting significant changes in disease progression following therapy” value (NSCLC) was “about 10%” and the “Mean absorbance (570 nm)” value (A549 NSCLC cells) was 1.35. For the same molecule, the “Mean absorbance (570 nm)” value [3] was 2.11.

Work on `O=c1[nH]cc(F)c(=O)[nH]1` [5-FU, 5-Fluorouracil] yielded an inhibition at 6.25 µM ([4]; Homo sapiens, 5-FU 6.25 μM) of 63.3%, an inhibition at 12.5 µM ([4]; Homo sapiens, 5-FU 12.5 μM) of 63% and an inhibition at 25 µM ([4]; Homo sapiens, 5-FU 25.0 μM) of 62.8%. It also gave an inhibition at 50 µM ([4]; Homo sapiens, 5-FU 50.0 μM) of 63%, an inhibition at 100 µM ([4]; Homo sapiens, 5-FU 100.0 μM) of 68.5% and an inhibition at 200 µM ([4]; Homo sapiens, 5-FU 200.0 μM) of 73.6%. For the same molecule, the inhibition at 400 µM ([4]; Homo sapiens, 5-FU 400.0 μM) was 79.2%, the “Mean Cell Number/mL” value ([4]; 5-FU 6.25 μM) was 116,500 /mL and the “Mean Cell Number/mL” value ([4]; 5-FU 12.5 μM) was 117,500 /mL. The “Mean Cell Number/mL” value ([4]; 5-FU 25.0 μM) was 118,200 /mL, the “Mean Cell Number/mL” value ([4]; 5-FU 50.0 μM) was 100,200 /mL and the “Mean Cell Number/mL” value ([4]; 5-FU 100.0 μM) was 117,600 /mL. The “Mean Cell Number/mL” value ([4]; 5-FU 200.0 μM) was 83,900 /mL, the “Mean Cell Number/mL” value ([4]; 5-FU 400.0 μM) was 66,200 /mL and the inhibition at 6.25 µM (PANC-1 cells; Homo sapiens, 336 h, PANC-1, 14 days, 6.25 μM 5-FU) was 96%. For the same molecule, the “Mean Cell Number/mL” value (PANC-1 cells; PANC-1, 14 days, 6.25 μM 5-FU) was 33,233 /mL and the “surviving 5-FU-resistant population remaining viable, of the initial population” value (PANC-1 cells; PANC-1, following 14-day 5-FU treatment) was 4%.

With `N.N.[Cl][Pt][Cl]` [cisplatin] the “% Inhibition” value (A549 cells [5]; cisplatin 0.103 μM) was 13.5%, the “Mean Cell” value (A549 cells [5]; cisplatin 0.103 μM) was 166,883 and the “% Inhibition” value (A549 cells [5]; cisplatin 0.207 μM) was 21.8%. For the same molecule, the “Mean Cell” value (A549 cells [5]; cisplatin 0.207 μM) was 150,917, the “% Inhibition” value (A549 cells [5]; cisplatin 0.413 μM) was 42.0% and the “Mean Cell” value (A549 cells [5]; cisplatin 0.413 μM) was 111,917. The “% Inhibition” value (A549 cells [5]; cisplatin 0.825 μM) was 74.9%, the “Mean Cell” value (A549 cells [5]; cisplatin 0.825 μM) was 48,400 and the “% Inhibition” value (A549 cells [5]; cisplatin 1.650 μM) was 91.6%. For the same molecule, the “Mean Cell” value (A549 cells [5]; cisplatin 1.650 μM) was 16,117, the “% Inhibition” value (A549 cells [5]; cisplatin 3.300 μM) was 94.8% and the “Mean Cell” value (A549 cells [5]; cisplatin 3.300 μM) was 10,033. The “% Inhibition” value (A549 cells [6]) was 98% and the “Mean Cell Number/mL” value (A549 cells [6]) was 5,780 /mL.

In the case of `C#Cc1cccc(Nc2ncnc3cc(OCCOC)c(OCCOC)cc23)c1` [erlotinib], the “patients exhibiting significant changes in disease progression following therapy” value (NSCLC) is given as “about 10%”, the “% Inhibition” value (A549 NSCLC cells) is given as 3.4% and the “Mean absorbance (570 nm)” value (A549 NSCLC cells) is given as 1.44. The “% Inhibition” value [3] was 0%, the “Mean absorbance (570 nm)” value [3] was 1.98 and the “Mean absorbance (570 nm)” value [7] was 1.73.

For “LGQQQPFPPQQPY [gliadin, alpha-gliadin peptide p31-43]”, the “cell proliferation of surviving 5-FU-treated PANC-1 cells” value [8] was “cell proliferation was significantly suppressed”, the “behavior changes compared to control mice” value [9, 10] was “No behavior changes were observed” and the treatment-related deaths [9, 10] was “no treatment-related deaths”. The “mean body weight (±SE) at the end of the study” value ([9]; 200 μg subcutaneously once a day for five days, n=5) was 20.0±0.3 grams and the NOAEL at 120 h ([9]; mouse, in vivo, sc, 200 ug, subcutaneously, five days, read-out: dosing level tolerated without apparent toxicity) was 10 mg/kg/day.
